Entries after “also recorded” stand apart in the source; their conditions may differ. Read-outs that look alike come from different tables or passages of the source. Numbered stars: 1 amine (or outer) side, 2 acyl side, 3 side chain; on linkers, the order of the positions; unused ones are H or OH. Bridge positions count the residues as written; N and C are the ends. Square brackets hold non-standard residues; d marks the D form. Peptide text beside a SMILES is read from it. X1 = O=C(/C(=C\c1c[nH]c2ccccc12)N[*:1])[*:2]; X2 = CC(c1c[nH]c2ccccc12)C(N[*:1])C(=O)[*:2]; βAsp = O=C(O)[CH](CC(=O)[*:2])N[*:1]
Columns and labels:
[1] = system: Telomycin-resistant bacteria; experiment: MIC by broth microdilution, telomycin-resistant strains; type: cell-based, S. aureus and B. subtilis; conditions: for activity against resistant strains: compared with telomycin A against sensitive strains
Description: (§1) FIG. 46 summarizes MICs of telomycin antibiotics (1-10). Sensitive and resistant strains were exposed to telomycins and MICs were measured by microdilution in CAMHB. MICs were determined after 16 h growth, and are shown in μg ml−1.
(§2) Minimum inhibitory concentrations (MICs) for telomycins were determined using broth microdilution in cation-adjusted Mueller Hinton broth (CAMHB). Bacillus subtilis strains were cultured at 28° C., and S. aureus strains were cultured at 37° C. […] For assessing the impact of treating strains with sodium chloride concentrations prior to telomycin, S. aureus was grown overnight in CAMHB containing 0, 0.5, 1, or 1.5 M NaCl and then MICs were recorded as described above.
To identify mutations that conferred resistance to telomycin, we isolated colonies of S. aureus Newman that appeared inside the zone of inhibition observed during telomycin disk diffusion assays. […] Genomic DNA was extracted from highly resistant isolates and their sensitive parental strain, and sequenced with an Illumina MiSeq platform. Sequences were compared using BreSeq, which exclusively identified mutations in the predominant, house-keeping cardiolipin synthase (cls2). Bacillus subtilis telomycin-resistant mutants were identified in a similar manner, and mutations in cardiolipin synthase were confirmed by sequencing PCR products of the two cardiolipin synthase genes: clsA and clsB. […] PCR primers used for the amplification of B. subtilis cardiolipin synthase genes are as follows— • clsAF: 5′-[…]-3′ (SEQ ID NO: 1); • clsAR: 5′-[…]-3′ (SEQ ID NO: 2); • clsBF: 5′-[…]-3′ (SEQ ID NO: 3); • clsBR: 5′-[…]-3′ (SEQ ID NO: 4). Structure Elucidation

[2] = system: Gram positive organisms; conditions: cited from earlier work
[3] = system: Sensitive and resistant strains; experiment: MICs of telomycin antibiotics (FIG. 46); type: cell-based
Description: as §1, §2

[4] = system: S. aureus; experiment: MIC by broth microdilution in CAMHB; type: cell-based
Description: as §2
(§3) (a) Structure of telomycin. […] Wild type S. aureus (OD 0.2) was exposed to 8 (1×MIC) or 256 μg ml^−1 (32×MIC) telomycin. Colony-forming units (CFUs) were taken before treatment (black) and after 90 min (white). Results are shown as ±s.d.; n=4; Two-tailed students t-test. P=0.0023. Data are representative of three independent experiments.

[5] = system: S. aureus; experiment: Colony forming unit (CFU) lysis assay; type: cell-based
Description: (§4) Cultures of S. aureus and B. subtilis were grown overnight in CAMHB. Starter cultures were used to inoculate fresh media and were grown to OD=0.2, after which they were transferred to 96-well plates. Cultures were serially diluted and plated on CAMHB agar to determine initial colony-forming units. Telomycin dissolved in DMSO was added to each well (1:100) and incubated for 90 min, followed by serial dilution and plating to determine colony-forming units. Results are shown as ±s.d.; n=4; Two-tailed students t-test.
as §3
(a) Mutating cardiolipin synthase provides spontaneous telomycin resistance. Wild type and spontaneously-resistant S. aureus (left) and B. subtilis (right) were exposed to 32×MIC concentrations of telomycin for 90 min. CFUs were taken before treatment (black) and after 90 min (white). Results are shown as ±s.d.; n=4; Two-tailed students t-test. P=0.0018. Data are representative of three independent experiments. […] Mixtures were incubated for 5 min before turbidity was measured using absorbance at 600 nm. […]

[6] = system: B. subtilis; experiment: Colony forming unit (CFU) lysis assay; type: cell-based; conditions: concentrations above the MIC
Description: as §4
(§5) (a) Mutating cardiolipin synthase provides spontaneous telomycin resistance. Wild type and spontaneously-resistant S. aureus (left) and B. subtilis (right) were exposed to 32×MIC concentrations of telomycin for 90 min. CFUs were taken before treatment (black) and after 90 min (white). Results are shown as ±s.d.; n=4; Two-tailed students t-test. P=0.0018. Data are representative of three independent experiments. […] Telomycin (final concentration 5 mM; 6.3 mg ml^−1) was mixed with CL, PG, PE, or PC at concentrations ranging from 0.125 to 5 mg ml^−1. Mixtures were incubated for 5 min before turbidity was measured using absorbance at 600 nm. […] Telomycin (0.1 mM) was exposed to lipids at concentrations ranging from 1 to 0.05 mM, then used to determine MICs against wild type B. subtilis. […] (d) Cardiolipin abolishes telomycin's antibacterial activity. […]

[7] = system: Telomycin-resistant bacteria; experiment: CFU lysis assay on spontaneously-resistant strains; type: cell-based, S. aureus and B. subtilis; conditions: 32×MIC, 90 min
Description: as §4, §5

[8] = system: HEK293 cells; experiment: Cytotoxicity assay (Alamar Blue); type: cell-based, human; conditions: HEK293, 48 h
Description: HEK293 cells were obtained from the American Type Culture Collection (ATCC; ATCC CRL-1573) and maintained in Minimal Essential Media (MEM) Alpha modifications supplemented with 10% fetal bovine serum. […] Cells were cultured in 96-well plates containing 200 μL of media and 5000 cells per well. After 3 h of incubation, cells were treated with a serial dilution of telomycin A. Experiments were performed in duplicate with DMSO as a negative control and mitomycin C as a positive control. After 48 h incubation, 10% (22 μL) Alamar Blue (Life Technologies) was added and incubated with cells for 4 h at 37° C. Fluorescence was measured at an excitation wavelength of 530 nm and an emission wavelength of 590 nm and compared to a no-drug control.

[9] = system: sheep red blood cell; experiment: Red blood cell (RBC) hemolysis assay; type: cell-based; conditions: 0.25% sheep RBC, 256 to 2 μg/mL, 1 h, 37° C.
Description: Hemolytic activity of telomycin was measured against a 0.25% sheep red blood cell (RBC, Fisher Scientific) suspension in phosphate-buffered saline. Telomycin was serially diluted from 256 to 2 μg/mL and incubated with the RBC suspension for 1 h at 37° C. in a polypropylene 96-well plate with conical wells. After 1 h, RBCs were pelleted (1000×g for 5 min) and the supernatant was transferred to a flat-bottom polystyrene 96-well plate, measuring absorbance at 540 nm. 1% Triton X-100 was used as a positive control, while DMSO alone and RBCs alone were used as negative controls.
A solution of 0.25% sheep red blood cell suspension in phosphate buffered saline was incubated for 1 h at 37° C. with either a serial dilution of telomycin, 1% Triton X100 (positive lysis control), DMSO alone (1%; negative lysis control), or without added content (negative lysis control). After 1 h RBCs were pelleted and lysis was assessed by measuring absorbance of the supernatant at 540 nm.

[10] = Turbidity of telomycin-lipid mixtures; type: binding; conditions: telomycin mixed with cardiolipin, absorbance at 600 nm, other lipids as contrast
Description: To measure the turbidity of telomycin-lipid mixtures, telomycin was dissolved in methanol at a concentration of 12.8 mg/mL, and cardiolipin (Sigma Aldrich; C0563; 98% pure), phosphatidylglycerol (Sigma Aldrich; 63371; ≥98% pure), phosphatidylcholine (Sigma Aldrich; P3556; ≥99% pure), and phosphatidylethanolamine (Sigma Aldrich; P7943; 97% pure) were dissolved in methanol at a concentration of 10 mg/mL. 20 μL of telomycin was mixed with 20, 10, 5, 1, or 0.5 μL of each lipid (final reaction volume 40 μL) in a flat-bottom polystyrene 96-well plate. Optical density (OD=600 nm) was measured after 10 min.
(§6) (a) Mutating cardiolipin synthase provides spontaneous telomycin resistance. Wild type and spontaneously-resistant S. aureus (left) and B. subtilis (right) were exposed to 32×MIC concentrations of telomycin for 90 min. CFUs were taken before treatment (black) and after 90 min (white). Results are shown as ±s.d.; n=4; Two-tailed students t-test. P=0.0018. Data are representative of three independent experiments. […] Telomycin (final concentration 5 mM; 6.3 mg ml^−1) was mixed with CL, PG, PE, or PC at concentrations ranging from 0.125 to 5 mg ml^−1. Mixtures were incubated for 5 min before turbidity was measured using absorbance at 600 nm. […] Telomycin (0.1 mM) was exposed to lipids at concentrations ranging from 1 to 0.05 mM, then used to determine MICs against wild type B. subtilis. […]

[11] = system: B. subtilis; experiment: Bioactivity of telomycin-lipid mixtures in liquid media (MIC); type: cell-based
Description: To assess the impact of various lipids on telomycin's antibacterial activity in liquid media, telomycin was dissolved in methanol at 12.8 mg/mL (approx. 10 mM) and 1 μL was added to a 96-well plate. Lipids were dissolved in methanol and 10 μL of 10, 5, 2, 1, or 0.5 mM lipid was added to each telomycin-containing well. CAMHB inoculated with B. subtilis was added to each well and serially diluted to determine the minimum inhibitory concentration of each telomycin-lipid mixture. Plates were incubated shaking at 28° C. for 16 h.
as §5

[12] = system: B. subtilis; experiment: Bioactivity of telomycin-lipid mixtures on solid agar (diffusion disks); type: cell-based; conditions: excess cardiolipin (2× molar equivalent)
Description: To assess the impact of various lipids on telomycin's antibacterial activity on solid agar, 10 μL of 10 mM telomycin was mixed with 10 μL of 20 mM cardiolipin (Sigma Aldrich; C0563; ≥98% pure), phosphatidylglycerol (Sigma Aldrich; 63371; ≥98% pure), phosphatidylcholine (Sigma Aldrich; P3556; ≥99% pure), or phosphatidylethanolamine (Sigma Aldrich; P7943; ≥97% pure). All compounds were dissolved in methanol. Mixtures were incubated for 10 min, then added to diffusion disks, allowed to dry, then placed on a CAMHB agar plate with B. subtilis as an indicator organism. The plate was incubated overnight at 28° C.
as §6

[13] = system: Chinese Hamster ovary (CHO) cells; conditions: previous studies; cited from earlier work
[14] = in vivo, cited from earlier work

With `CC(C)CC1NC(=O)C(C(C)c2c[nH]c3ccccc23)NC(=O)/C(=C\c2c[nH]c3ccccc23)NC(=O)C2CCCN2C(=O)CNC(=O)C(C)NC(=O)C(C(C)O)NC(=O)C(NC(=O)C(CO)NC(=O)CC(N)C(=O)O)C(C)OC(=O)C2CCCN2C1=O` (stereo not drawn) [telomycin F] (βAsp-STTAGP[X1][X2]LP; ester 2-C; configuration not given here) the “activity against resistant strains” value [1] was “comparable with the activity of telomycin A against sensitive strains”.
For LL-AO341β, the “activity relative to telomycin” value [2] is given as “improved activity” and the “cross-resistance with other antibacterial agents” value ([2]; previous observations) is given as “does not demonstrate cross-resistance”.
With “N-carboxyfluorescein telomycin [fluorescein-labelled telomycin conjugate]” the “antimicrobial activity relative to telomycin” value [3] was “slight decrease”.
For di-5-methyltryptophan telomycin, the “activity against resistant strains” value [1] was “comparable with the activity of telomycin A against sensitive strains”.
With telomycin A the “telomycin activity after growth in high salinity” value ([4]; S. aureus grown in CAMHB with 0, 0.5, 1, or 1.5 M NaCl) was “improved”, the MIC ([4]; Wild type S. aureus) was 8 µg/mL and the “increase in MIC” value ([1]; telomycin-resistant bacteria generated with limited passaging, versus sensitive parent) was 16 fold. For the same compound, the lysis of bacteria ([5]; concentrations above the MIC) was “rapid lysis”, the “lysis (CFUs before and after treatment)” value ([5]; wild type S. aureus OD 0.2, 256 μg ml^−1 (32×MIC), 90 min) was “lyses S. aureus at high concentrations” and the lysis of bacteria [6] was “rapid lysis”. For the same compound, the “lysis of telomycin-resistant bacteria” value [7] was “refractory to lysis”, the “cytotoxicity: not observed at concentrations up to” value [8] was greater than 128 µg/mL and the hemolysis [9] was “not hemolytic; also recorded: does not cause hemolysis”. The hemolysis ([9]; listed as Telomycin) was “not hemolytic; also recorded: does not Cause Hemolysis”, the “turbidity / precipitation with cardiolipin” value [10] was “rapidly formed an opaque precipitant in a dose-dependent manner” and the “turbidity / precipitation with cardiolipin” value ([10]; listed as Telomycin) was “uniquely and rapidly acquire turbidity”. The “effect of phosphatidylglycerol on antibacterial activity of telomycin” value ([11]; phosphatidylglycerol in 10× molar excess) was “some protective effect”, the “effect of cardiolipin on antibacterial activity of telomycin (MIC)” value ([11]; telomycin 0.1 mM, lipids 1 to 0.05 mM) was “reduces telomycin's antibacterial activity in a dose-dependent manner” and the “effect of cardiolipin on antibacterial activity of telomycin” value [12] was “completely abolish; also recorded: abolishes”. The “toxicity: not observed at concentrations up to” value [13] was greater than 40 µg/mL, the “efficacy in animal studies” value [14] was “demonstrated efficacy; also recorded: demonstrated value in vivo” and the “toxicity in animals / mammals” value [14] was “without apparent toxicity”. The “toxicity in animals / mammals” value ([14]; listed as Telomycin) was “not known to possess significant toxicity”.
